Patent US20150031598A1, “NEMO BINDING DOMAIN FUSION PROTEINS” (Encode Bio, Inc., priority 2012, published 2015)
Ends that are not written are not given here.

Experiments:
HEK293 cells = type: cell-based; details: concentrations up to 1 μM
NF-κB signaling = assay: TNFα-mediated SEAP expression in pNiFty-SEAP transfected HEK293 cells (NF-κB reporter); type: cell-based; details: for block of TNFα-mediated SEAP expression (in words): pNiFty-SEAP transfected HEK293 cells
From the text: HEK293 cells were transfected with the plasmid pNiFty-SEAP which encodes for a secreted alkaline phosphatase (SEAP) whose expression is under control of an ELAM-1 composite promoter containing five NF-κB sites. Treatment of cells with TNFα causes activation of the IkB kinase complex and, in turn, NF-κB, resulting in SEAP expression. We verified that pNiFty-SEAP transfected HEK293 cells treated with the NBD Peptide (FIG. 2; FIG. 3, Panel B) blocked the expression of TNFα-mediated SEAP expression in a concentration-dependent manner with an IC50 of ˜60 μM. […] Treatment of cells with circularized NBD-MCoTI-II generated in bacteria (data not shown) or linear NBD-MCoTI-II generated by automated synthesis (FIG. 2; FIG. 3 Panel A) blocked TNFα-mediated SEAP expression, but not WT MCoTI-II (FIG. 2).

[1] = test system: carrageenan-induced paw edema; assay: Mouse carrageenan paw edema (CPE) model; type: in vivo; details: for reduction of swelling: 12 hours post-carrageenan
Experimental: Anti-inflammatory activity of linear NBD-MCoTI-II was tested at two doses (5 and 25 μg/kg) in the mouse CPE model. Mice were administered (i.p.) either NBD-MCoTI-II, dexamethasone (10 mg/kg) or saline one hour prior to inducing edema by carrageenan injection into the subplantar region of the left hind foot. Swelling was then measured by water displacement method at 2, 4, 6 and 12 hours post-carrageenan injection. […] At 12 hours, 5 and 25 μg/kg NBD MCoTI-II reduced swelling 30 and 50%, respectively (FIG. 5). […] (FIG. 5).

[2] = test system: collagen-induced arthritis; assay: Mouse collagen-induced arthritis (CIA) model, therapeutic mode; type: in vivo, male DBA/1J mice
Experimental: We next tested the efficacy of linear NBD-MCoTI-II in the mouse CIA model in therapeutic mode, a standard model for evaluating anti-arthritic activity. Mice were injected with collagen type II. CIA was induced in male DBA/1J mice by tail injection of Type II collagen (100 μg) mixed with complete Freund's adjuvant. On Day 21, a booster injection (i.p.) of collagen (100 μg)/incomplete Freund's adjuvant was administered. The severity of arthritis (arthritic index (AI)) was scored in each paw as follows: 0-no evidence of erythema and swelling, 1-erythema and mild swelling confined to the mid-foot (tarsals) or ankle joint, 2-erythema and mild swelling extending from the ankle to the mid-foot, 3-erythema and moderate swelling extending from the ankle to the metatarsal joints and 4-erythema and severe swelling encompass the ankle, foot and digits. AI scores were measured in each paw and summed (maximum score of 16 per mouse). After the AI score reached an average of 3.1 on Day 27, mice were separated into three treatment groups and administered (i.p.) daily: saline, 100 μg/kg NBD-MCoTI-II and 3 mg/kg dexamethasone for 14 days. AI scores, body weights, paw thickness and any signs of distress were monitored daily. […] The marked inhibition of arthritic disease progression by NBD-MCoTI-II persisted for the study duration. […] The effect lasted the study duration.
To further assess the efficacy of linear NBD-MCoTI-II we performed histopathology analysis of the studies on the joints of CIA mice treated with saline and NBD-MCoTI-II (100 μg/kg).
To compare the efficacy of NBD-MCoTI-II to existing anti-arthritic drugs we calculated a composite histopathology score for the CIA mice from the individual scores of inflammation, pannus, cartilage damage and bone resorption by adding them. Shown in FIG. 9 is a comparison of the composite histopathology scores for NBD-MCoTI-II (100 μg/kg) to published values for the existing anti-arthritic drugs Enbrel™ (15 mg/kg), Orencia™ (5 mg/kg), Xeljanz™ (10 mg/kg) and INCB028050 (15/mg). Data are presented as a percent of the composite histopathology scores for CIA mice treated with saline. […] J Immunol 184:5298-307, the contents of each of which are herein incorporated by reference in their entireties). […] Thus, linear NBD-MCoTI-II prevented joint damage while the other anti-arthritic drugs were only capable of reducing joint damage.
Splenomegaly is associated with arthritis and has been observed in the mouse CIA model [(see, e.g., Foell J L et al., (2004) Engagement of the CD137 (4-1BB) costimulatory molecule inhibits and reverses the autoimmune process in collagen-induced arthritis and establishes lasting disease resistance. Immunology 113:89-98; and Liu Y et al., (2011) Therapeutic effects of TACI-Ig on collagen-induced arthritis by regulating T and B lymphocytes function in DBA/1 mice. Eur J Pharmacol 654:304-14); the contents of each of which are herein incorporated by reference in their entirities)].
Mouse body weights were unchanged relative to saline controls.

[3] = molecular target: NEMO (nuclear factor kB essential modulator) (UniProt Q9Y6K9); assay: cell-based or functional assay
[4] = molecular target: NEMO (nuclear factor kB essential modulator) (UniProt Q9Y6K9 1-419); assay: cell-based or functional assay
Sequence of NEMO (nuclear factor kB essential modulator) (UniProt Q9Y6K9 1-419) (Q9Y6K9 whole entry): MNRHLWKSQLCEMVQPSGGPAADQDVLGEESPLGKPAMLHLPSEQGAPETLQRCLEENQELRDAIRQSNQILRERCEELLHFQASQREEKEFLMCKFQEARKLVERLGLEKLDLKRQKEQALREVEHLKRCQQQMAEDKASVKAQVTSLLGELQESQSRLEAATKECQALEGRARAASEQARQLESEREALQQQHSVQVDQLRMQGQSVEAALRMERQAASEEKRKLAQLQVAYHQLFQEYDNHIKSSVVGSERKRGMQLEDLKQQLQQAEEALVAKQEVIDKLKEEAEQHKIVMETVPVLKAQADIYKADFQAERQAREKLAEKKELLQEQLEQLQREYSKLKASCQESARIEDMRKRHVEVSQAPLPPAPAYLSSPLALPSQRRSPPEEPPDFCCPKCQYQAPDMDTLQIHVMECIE

Sequence of NEMO (nuclear factor kB essential modulator) (UniProt Q9Y6K9) (Q9Y6K9 whole entry): as above

FTALDWSWLQTCPKILKKCRRDSDCPGACICRGNGYC [linear NBD-MCoTI-II]
overt cellular toxicity (HEK293 cells): no overt cellular toxicity
potency relative to NBD peptide, inhibition of NF-κB signaling (NF-κB signaling; cell-based assay, versus NBD Peptide): 10^6 fold
block of TNFα-mediated SEAP expression (in words) (NF-κB signaling): blocked
in vivo potency relative to NBD Peptide ([1]; 5 μg/kg NBD-MCoTI-II similar to NBD Peptide 25 mg/kg (di Meglio 2005)): 5000 fold
reduction of swelling ([1]; 5 μg/kg i.p.): 30%
reduction of swelling ([1]; 25 μg/kg i.p.): 50%
swelling (in words) ([1]; 5 and 25 μg/kg i.p., 4, 6 and 12 hours post-carrageenan): significantly reduced swelling
joint histopathology scores (inflammation, pannus, cartilage damage, bone resorption) ([2]; 100 μg/kg): at or near zero
progression of arthritis (arthritic index score) ([2]; 100 μg/kg i.p. daily, by Day 29, p<0.01, persisted for the study duration): halted the progression of arthritis
increase in paw thickness ([2]; 100 μg/kg i.p. daily, p<0.01, lasted the study duration): blocked the increase in paw thickness
composite histopathology score ([2]; 100 μg/kg, percent of saline-treated CIA mice): almost zero
kidney, liver and intestine weights ([2]; CIA mice): within normal ranges
laboratory blood analysis (blood chemistry, kidney function tests, ALT, AST, blood cell counts) ([2]; CIA mice): within normal ranges
signs of toxicity or distress ([2]; CIA mice, 100 μg/kg i.p. daily for 14 days): no obvious signs of toxicity or distress
spleen weight ([2]; CIA mice, saline 135±27 mg, p<0.01): 100 ± 17 mg
efficacy relative to CP690550 (Xeljanz) and anti-TNF Ab control in ameliorating arthritic symptoms ([2]; comparison with Milici 2008): at least as effective
mouse body weights ([2]; relative to saline controls): unchanged

WT MCoTI-II: wild-type MCoTI-II (SEQ ID NO:3), cystine-knot microprotein, trypsin inhibitor subfamily (MCGSGSDGGVCPKILKKCRRDSDCPGACICRGNGY; disulfide (positions not given here); not fully specified; listed as Homo sapiens) [reference compound]
overt cellular toxicity (HEK293 cells): no overt cellular toxicity
block of TNFα-mediated SEAP expression (in words) (NF-κB signaling): not

circularized NBD-MCoTI-II: circular, native-folded NBD-MCoTI-II generated in bacteria; sequence after processing SEQ ID NO:10 (cyclo(FTALDWSWLQTCPKILKKCRRDSDCPGACICRGNGYC); ends not checked; also: native-folded, disulfide pairing not given here)
block of TNFα-mediated SEAP expression (in words) (NF-κB signaling): blocked

FTALDWSWLQT (peptide, part only; not given: cell penetrating peptide, part only, not fully specified) [NBD Peptide]
IC50 for blocking TNFα-mediated SEAP expression (NF-κB reporter, pNiFty-SEAP transfected HEK293 cells) [3]: 60 µM

B1: linear NBD-MCoTI-II generated by automated synthesis (designed binder)
chain: FTALDWSWLQTCPKILKKCRRDSDCPGACICRGNGYC
modifications: ends and bridges not checked; also: folded in glutathione buffers, disulfides not placed
IC50 for blocking TNFα-mediated SEAP expression (NF-κB reporter, pNiFty-SEAP transfected HEK293 cells) [4]: 60 pM
